Assay results: patent publication US9663525B2, “Pyrazolopyrimidinyl inhibitors of ubiquitin-activating enzyme” (Millennium Pharmaceuticals, Inc., priority 2012, dated 2017)

Molecular target: recombinant human UAE (Homo sapiens (Human), UniProt P22314)
Assay: Ubiquitin Activating Enzyme (UAE) HTRF assay, human UAE
Conditions: not given

Chain of recombinant human UAE (P22314 whole entry): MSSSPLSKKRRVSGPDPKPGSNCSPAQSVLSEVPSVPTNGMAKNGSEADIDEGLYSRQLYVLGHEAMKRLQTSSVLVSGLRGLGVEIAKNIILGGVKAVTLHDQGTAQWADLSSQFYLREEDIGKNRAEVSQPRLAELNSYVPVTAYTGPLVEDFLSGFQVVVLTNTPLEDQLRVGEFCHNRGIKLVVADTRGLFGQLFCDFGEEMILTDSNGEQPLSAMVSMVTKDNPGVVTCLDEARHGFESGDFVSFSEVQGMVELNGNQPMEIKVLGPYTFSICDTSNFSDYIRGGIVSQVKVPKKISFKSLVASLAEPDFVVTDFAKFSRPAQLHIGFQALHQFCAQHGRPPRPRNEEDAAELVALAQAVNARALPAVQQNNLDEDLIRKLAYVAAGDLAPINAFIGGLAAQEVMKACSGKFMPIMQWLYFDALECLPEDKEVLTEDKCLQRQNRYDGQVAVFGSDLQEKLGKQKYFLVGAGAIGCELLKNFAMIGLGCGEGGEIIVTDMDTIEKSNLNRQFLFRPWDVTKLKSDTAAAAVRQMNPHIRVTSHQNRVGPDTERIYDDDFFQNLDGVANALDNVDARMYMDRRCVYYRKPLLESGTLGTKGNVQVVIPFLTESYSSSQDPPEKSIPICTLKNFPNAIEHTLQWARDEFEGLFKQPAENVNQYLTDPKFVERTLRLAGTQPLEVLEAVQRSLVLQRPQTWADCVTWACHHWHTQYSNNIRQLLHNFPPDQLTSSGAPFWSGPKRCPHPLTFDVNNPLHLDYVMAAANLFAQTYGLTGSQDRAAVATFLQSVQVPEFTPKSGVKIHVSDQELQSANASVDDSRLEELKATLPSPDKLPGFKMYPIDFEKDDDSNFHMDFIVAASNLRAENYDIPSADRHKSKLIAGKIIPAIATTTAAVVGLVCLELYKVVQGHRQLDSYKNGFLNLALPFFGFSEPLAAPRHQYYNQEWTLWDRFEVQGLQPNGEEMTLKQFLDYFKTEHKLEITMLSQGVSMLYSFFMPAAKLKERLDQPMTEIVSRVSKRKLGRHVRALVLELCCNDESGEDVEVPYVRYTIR

| SMILES | IC50 [µM] |
| --- | --- |
| NS(=O)(=O)OC[C@H]1C[C@@H](Nc2ccnc3cc(-c4cccc5c4oc4ccccc45)nn23)[C@H](O)[C@@H]1O (racemic) [Compound I-010, (rac)-((1R,2R,3S,4R)-4-(2-(dibenzo[b,d]furan-4-yl)pyrazolo[1,5-a]pyrimidin-7-ylamino)-2,3-dihydroxycyclopentyl)methyl rel-sulfamate] | < 0.01 |
| NS(=O)(=O)OC[C@H]1C[C@@H](Nc2ccnc3cc(-c4cc5ccc(Cl)cc5s4)nn23)[C@H](O)[C@@H]1O (racemic) [Compound I-088, (rac)-((1R,2R,3S,4R)-4-(2-(6-chlorobenzo[b]thiophen-2-yl)pyrazolo[1,5-a]pyrimidin-7-ylamino)-2,3-dihydroxycyclopentyl)methyl rel-sulfamate] | 0.01 to 0.1 |
| NS(=O)(=O)OC[C@H]1C[C@@H](Nc2ccnc3cc(-c4ccc5cccnc5c4)nn23)[C@H](O)[C@@H]1O (racemic) [Compound I-043, (rac)-((1R,2R,3S,4R)-2,3-dihydroxy-4-(2-(quinolin-7-yl)pyrazolo[1,5-a]pyrimidin-7-ylamino)cyclopentyl)methyl rel-sulfamate] | < 0.01 |
| NS(=O)(=O)OC[C@H]1C[C@@H](Nc2ccnc3cc(-c4cncc(-c5ccccc5)n4)nn23)[C@H](O)[C@@H]1O (racemic) [Compound I-121, (rac)-((1R,2R,3S,4R)-2,3-dihydroxy-4-{[2-(6-phenylpyrazin-2-yl)pyrazolo[1,5-a]pyrimidin-7-yl]amino}cyclopentyl)methyl rel-sulfamate] | < 0.01 |
| COC(=O)c1ccc2c(-c3cc4nccc(N[C@@H]5C[C@H](COS(N)(=O)=O)[C@@H](O)[C@H]5O)n4n3)cccc2c1 (relative stereo) [Compound I-096, (rac)-methyl rel-5-[7-({(1R,2S,3R,4R)-2,3-dihydroxy-4-[(sulfamoyloxy)methyl]cyclopentyl}amino)pyrazolo[1,5-a]pyrimidin-2-yl]-2-naphthoate] | < 0.01 |
| NS(=O)(=O)OC[C@H]1C[C@@H](Nc2ccnc3cc(-c4cncc5ccccc45)nn23)[C@H](O)[C@@H]1O (racemic) [Compound I-018, (rac)-((1R,2R,3S,4R)-2,3-dihydroxy-4-(2-(isoquinolin-4-yl)pyrazolo[1,5-a]pyrimidin-7-ylamino)cyclopentyl)methyl rel-sulfamate] | < 0.01 |

Same assay, conditions: human UAE

| SMILES | IC50 [µM] |
| --- | --- |
| COc1ccc(SC(F)(F)F)cc1-c1cc2nccc(N[C@@H]3C[C@H](COS(N)(=O)=O)[C@@H](O)[C@H]3O)n2n1 [Compound I-120, (s.e.)-((1R,2R,3S,4R)-2,3-dihydroxy-4-(2-(2-methoxy-5-(trifluoromethylthio)-phenyl)pyrazolo[1,5-a]pyrimidin-7-ylamino)cyclopentyl)methyl sulfamate] | < 0.01 |
| COc1ccc(OC(F)(F)F)cc1-c1cc2nccc(N[C@@H]3C[C@H](COS(N)(=O)=O)[C@@H](O)[C@H]3O)n2n1 [Compound I-102, (s.e)-[(1R,2R,3S,4R)-2,3-dihydroxy-4-({2-[2-methoxy-5-(trifluoromethoxy)-phenyl]pyrazolo[1,5-a]pyrimidin-7-yl}amino)cyclopentyl]methyl sulfamate] | < 0.01 |
| COc1ccc2ccccc2c1-c1cc2nccc(N[C@@H]3C[C@H](COS(N)(=O)=O)[C@@H](O)[C@H]3O)n2n1 [Compound I-104, (s.e.)-((1R,2R,3S,4R)-2,3-dihydroxy-4-(2-(2-methoxynaphthalen-1-yl)pyrazolo[1,5-a]pyrimidin-7-ylamino)cyclopentyl)methyl sulfamate] | < 0.01 |

System: leukemia and myeloma cell lines
Assay: not given
Conditions: cited from earlier work

| SMILES | cell death |
| --- | --- |
| O=C1NN(c2ccc(F)c(Cl)c2)C(=O)/C1=C\c1ccc([N+](=O)[O-])o1 [PYZD-4409] | induced cell death |

Molecular target: mouse UAE (Mus musculus (Mouse), UniProt Q02053)
Sequence (Q02053 whole entry): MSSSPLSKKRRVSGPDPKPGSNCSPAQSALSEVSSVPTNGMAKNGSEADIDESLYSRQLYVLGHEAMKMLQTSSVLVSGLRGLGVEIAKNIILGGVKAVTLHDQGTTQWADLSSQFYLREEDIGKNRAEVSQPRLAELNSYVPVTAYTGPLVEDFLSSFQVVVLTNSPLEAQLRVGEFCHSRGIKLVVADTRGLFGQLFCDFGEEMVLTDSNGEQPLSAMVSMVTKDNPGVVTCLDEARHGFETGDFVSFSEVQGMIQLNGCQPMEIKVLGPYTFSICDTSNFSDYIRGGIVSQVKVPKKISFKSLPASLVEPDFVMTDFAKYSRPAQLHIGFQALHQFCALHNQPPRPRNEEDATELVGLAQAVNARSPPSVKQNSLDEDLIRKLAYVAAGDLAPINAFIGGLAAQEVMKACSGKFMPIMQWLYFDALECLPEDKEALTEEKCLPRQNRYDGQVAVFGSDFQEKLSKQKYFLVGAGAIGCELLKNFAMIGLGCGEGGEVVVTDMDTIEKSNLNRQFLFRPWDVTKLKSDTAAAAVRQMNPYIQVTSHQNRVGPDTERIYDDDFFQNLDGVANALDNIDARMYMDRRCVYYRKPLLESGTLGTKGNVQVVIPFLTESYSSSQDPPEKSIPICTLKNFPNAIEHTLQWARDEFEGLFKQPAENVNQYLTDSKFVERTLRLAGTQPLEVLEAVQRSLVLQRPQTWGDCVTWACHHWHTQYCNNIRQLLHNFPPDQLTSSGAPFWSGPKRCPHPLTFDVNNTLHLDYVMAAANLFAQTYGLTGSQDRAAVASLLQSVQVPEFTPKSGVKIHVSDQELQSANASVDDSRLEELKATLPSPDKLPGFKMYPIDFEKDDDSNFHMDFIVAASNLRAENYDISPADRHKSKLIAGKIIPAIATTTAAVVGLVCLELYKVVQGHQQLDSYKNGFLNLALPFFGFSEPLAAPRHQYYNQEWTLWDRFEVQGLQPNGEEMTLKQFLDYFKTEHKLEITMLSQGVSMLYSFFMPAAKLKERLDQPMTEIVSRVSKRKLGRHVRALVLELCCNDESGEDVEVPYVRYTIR
Assay: Ubiquitin Activating Enzyme (UAE) HTRF assay, mouse UAE
Conditions: not given

| SMILES | IC50 [µM] |
| --- | --- |
| NS(=O)(=O)OC[C@H]1C[C@@H](Nc2ccnc3cc(-c4cccc(Cl)c4)nn23)[C@H](O)[C@@H]1O (racemic) [Compound I-005, (rac)-((1R,2R,3S,4R)-4-((2-(3-Chlorophenyl)pyrazolo[1,5-a]pyrimidin-7-yl)amino)-2,3-dihydroxycyclopentyl)methyl rel-sulfamate] | < 0.01 |
| NS(=O)(=O)OC[C@H]1C[C@@H](Nc2cc(Cl)nc3cc(-c4ccccn4)nn23)[C@H](O)[C@@H]1O (racemic) [Compound I-011, (rac)-((1R,2R,3S,4R)-4-(5-chloro-2-(pyridin-2-yl)pyrazolo[1,5-a]pyrimidin-7-ylamino)-2,3-dihydroxycyclopentyl)methyl rel-sulfamate] | 0.1 to 1 |
| NS(=O)(=O)OC[C@H]1C[C@@H](Nc2ccnc3cc(-c4ccccn4)nn23)[C@H](O)[C@@H]1O (racemic) [Compound I-012, (rac)-[(1R,2R,3S,4R)-2,3-dihydroxy-4-{[2-(pyridin-2-yl)pyrazolo[1,5-a]pyrimidin-7-yl]amino}cyclopentyl]methyl rel-sulfamate] | 0.01 to 0.1 |
| NS(=O)(=O)OC[C@H]1C[C@@H](Nc2ccnc3cc(-c4cccc5ccccc45)nn23)[C@H](O)[C@@H]1O (racemic) [Compound I-002, (rac)-((1R,2R,3S,4R)-2,3-dihydroxy-4-{[2-(1-naphthyl)pyrazolo[1,5-a]-pyrimidin-7-yl]amino}cyclopentyl)methyl rel-sulfamate] | < 0.01 |
| NS(=O)(=O)OC[C@H]1C[C@@H](Nc2ccnc3cc(-c4ccccc4)nn23)[C@H](O)[C@@H]1O (racemic) [Compound I-001, (rac)-((1R,2R,3S,4R)-2,3-dihydroxy-4-(2-phenylpyrazolo[1,5-a]pyrimidin-7-ylamino)cyclopentyl)methyl rel-sulfamate] | 0.01 to 0.1 |
| NS(=O)(=O)OC[C@H]1C[C@@H](Nc2ccnc3cc(-c4csc5cc(Cl)ccc45)nn23)[C@H](O)[C@@H]1O (racemic) [Compound I-091, (rac)-((1R,2R,3S,4R)-4-(2-(6-chlorobenzo[b]thiophen-3-yl)pyrazolo[1,5-a]pyrimidin-7-ylamino)-2,3-dihydroxycyclopentyl)methyl rel-sulfamate] | < 0.01 |

System: mouse acute myeloid leukemia (AML model)
Assay: not given
Conditions: cited from earlier work

| SMILES | anti-tumor activity |
| --- | --- |
| O=C1NN(c2ccc(F)c(Cl)c2)C(=O)/C1=C\c1ccc([N+](=O)[O-])o1 [PYZD-4409] | demonstrated anti-tumor activity |
